The target in assay [1] is human FGFR-1 (Homo sapiens, UniProt P11362). As to the kind of experiment: FGFR-1 high ATP kinase assay (TR-FRET). The format is biochemical. As to conditions: 2 mM ATP; 15 min pre-incubation with enzyme; compounds of the invention. Background: TR-FRET usually uses a lanthanide donor and a delayed reading to cut background.
Assay [2] deals with human FGFR-3 (Homo sapiens (Human), UniProt P22607). In words: FGFR-3 kinase assay (TR-FRET). The format is biochemical. To be noted: 10 μM ATP; 15 min pre-incubation with enzyme; compounds of the invention.
Chain of human FGFR-3 (P22607 397-806): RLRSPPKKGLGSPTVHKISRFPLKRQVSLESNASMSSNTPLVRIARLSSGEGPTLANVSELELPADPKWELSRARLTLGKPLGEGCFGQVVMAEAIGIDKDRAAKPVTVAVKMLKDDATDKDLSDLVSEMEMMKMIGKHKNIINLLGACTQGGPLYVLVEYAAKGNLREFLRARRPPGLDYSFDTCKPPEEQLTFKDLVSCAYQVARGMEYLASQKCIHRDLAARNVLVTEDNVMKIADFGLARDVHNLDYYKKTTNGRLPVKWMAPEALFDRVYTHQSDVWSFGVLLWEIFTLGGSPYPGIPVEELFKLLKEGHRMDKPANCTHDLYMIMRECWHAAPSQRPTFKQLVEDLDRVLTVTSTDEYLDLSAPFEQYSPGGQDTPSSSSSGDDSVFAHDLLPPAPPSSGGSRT

Chain of human FGFR-1 (P11362 22-822 limits assumed): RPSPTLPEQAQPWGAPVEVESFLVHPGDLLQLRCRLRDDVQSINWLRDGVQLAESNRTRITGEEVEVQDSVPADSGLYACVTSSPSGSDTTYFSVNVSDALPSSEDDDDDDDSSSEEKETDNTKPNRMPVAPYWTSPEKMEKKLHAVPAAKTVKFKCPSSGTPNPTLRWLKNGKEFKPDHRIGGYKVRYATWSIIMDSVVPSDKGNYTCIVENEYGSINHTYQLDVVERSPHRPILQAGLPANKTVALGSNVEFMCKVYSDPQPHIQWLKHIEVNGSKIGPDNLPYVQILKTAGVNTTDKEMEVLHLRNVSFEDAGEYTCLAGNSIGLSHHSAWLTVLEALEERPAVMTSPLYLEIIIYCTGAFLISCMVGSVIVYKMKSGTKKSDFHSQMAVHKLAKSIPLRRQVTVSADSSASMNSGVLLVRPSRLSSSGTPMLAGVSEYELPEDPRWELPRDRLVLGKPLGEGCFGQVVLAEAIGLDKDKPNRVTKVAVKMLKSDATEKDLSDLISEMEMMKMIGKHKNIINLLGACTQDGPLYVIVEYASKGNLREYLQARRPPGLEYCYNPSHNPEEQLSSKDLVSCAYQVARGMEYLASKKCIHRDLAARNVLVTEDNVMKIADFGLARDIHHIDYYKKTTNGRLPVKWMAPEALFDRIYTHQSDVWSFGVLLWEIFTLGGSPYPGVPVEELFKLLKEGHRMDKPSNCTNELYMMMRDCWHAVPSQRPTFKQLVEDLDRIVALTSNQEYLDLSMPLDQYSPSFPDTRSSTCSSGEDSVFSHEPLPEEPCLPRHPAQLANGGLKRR

Consider `COc1cc(C)cc2cc(-c3c(CN4CCNC(=O)C4)c(CN4CCN(C=O)CC4)n4ncnc(N)c34)sc12` [Example 58, 4-({4-Amino-5-(7-methoxy-5-methyl-1-benzothiophen-2-yl)-6-[(3-oxopiperazin-1-yl)methyl]-pyrrolo[2,1-f][1,2,4]triazin-7-yl}methyl)piperazine-1-carbaldehyde formiate], for which the IC50 in assay [1] came to 6.8 nM; in assay [2], 9.8 nM.
For `COc1cc(C)cc2cc(-c3c(CN4CCNC(=O)C4)c(CN4CCN(C(C)=O)CC4)n4ncnc(N)c34)sc12` [Example 59, 4-({7-[(4-Acetylpiperazin-1-yl)methyl]-4-amino-5-(7-methoxy-5-methyl-1-benzothiophen-2-yl)pyrrolo[2,1-f][1,2,4]triazin-6-yl}methyl)piperazin-2-one], in that order: 3.8 nM and 6.8 nM.
`COC(=O)c1c(-c2cc3cc(C)cc(OC)c3s2)c2c(N)ncnn2c1C(=O)N1CCNCC1` [Example 60, Methyl 4-amino-5-(7-methoxy-5-methyl-1-benzothiophen-2-yl)-7-(piperazin-1-ylcarbonyl)pyrrolo-[2,1-f][1,2,4]triazine-6-carboxylate bis(formiate)]: the concentration for half-maximal inhibition (IC50) was 16.2 nM in assay [1] and 77.9 nM in assay [2].
The corresponding values for `COc1cc(C)cc2cc(-c3c(CNC(C)=O)c(CN4CCN(C=O)CC4)n4ncnc(N)c34)sc12` [Example 65, N-({4-Amino-7-[(4-formylpiperazin-1-yl)methyl]-5-(7-methoxy-5-methyl-1-benzothiophen-2-yl)pyrrolo[2,1-f][1,2,4]triazin-6-yl}methyl)acetamide formiate] are 5.6 nM and 3.1 nM.
The corresponding values for `COc1cc(C)cc2cc(-c3c(CNC(C)=O)c(CN4CCN(C(C)=O)CC4)n4ncnc(N)c34)sc12` [Example 66, N-({7-[(4-Acetylpiperazin-1-yl)methyl]-4-amino-5-(7-methoxy-5-methyl-1-benzothiophen-2-yl)pyrrolo[2,1-f][1,2,4]triazin-6-yl}methyl)acetamide] are 1.6 nM and 3.7 nM.
The corresponding values for `COc1cc(C)cc2cc(-c3c(CNC(C)=O)c(CN4CCNC(=O)C4)n4ncnc(N)c34)sc12` [Example 67, N-({4-Amino-5-(7-methoxy-5-methyl-1-benzothiophen-2-yl)-7-[(3-oxopiperazin-1-yl)methyl]-pyrrolo[2,1-f][1,2,4]triazin-6-yl}methyl)acetamide] are 5 nM and 9.4 nM.
As to `COc1cc(C)cc2cc(-c3c(CO)c(C#N)n4ncnc(N)c34)sc12` [Example 68, 4-Amino-6-(hydroxymethyl)-5-(7-methoxy-5-methyl-1-benzothiophen-2-yl)pyrrolo[2,1-f][1,2,4]-triazine-7-carbonitrile], the half-maximal inhibitory concentration (IC50) in assay [1] came out at 27 nM; in assay [2] it was 42.7 nM.
With `COc1cc(C)cc2cc(-c3c(CO)c(C(C)(C)O)n4ncnc(N)c34)sc12` [Example 73, 2-[4-Amino-6-(hydroxymethyl)-5-(7-methoxy-5-methyl-1-benzothiophen-2-yl)pyrrolo[2,1-f]-[1,2,4]triazin-7-yl]propan-2-ol], the IC50 was found to be 4.4 nM in assay [1] and 12.2 nM in assay [2].
For `COc1cc(C)cc2cc(-c3c(CN4CCNC(=O)C4)c(C(C)(C)O)n4ncnc(N)c34)sc12` [Example 74, 4-{[4-Amino-7-(2-hydroxypropan-2-yl)-5-(7-methoxy-5-methyl-1-benzothiophen-2-yl)pyrrolo-[2,1-f][1,2,4]triazin-6-yl]methyl}piperazin-2-one], in that order: 4 nM and 1.4 nM.
`COc1cc(C)cc2cc(-c3c(CO)c(C)n4ncnc(N)c34)sc12` [Example 75, [4-Amino-5-(7-methoxy-5-methyl-1-benzothiophen-2-yl)-7-methylpyrrolo[2,1-f][1,2,4]triazin-6-yl]methanol]: the half-inhibitory concentration (IC50) worked out at 4.1 nM in assay [1] and 19.8 nM in assay [2].

As usually defined, the IC50 is the point on the concentration scale where inhibition reaches its midpoint. High values mean weaker potency in that assay, low ones greater potency in that assay.
